The values below come from article PMC11278298, “Generation, Characterisation and Identification of Bioactive Peptides from Mesopelagic Fish Protein Hydrolysates Using In Silico and In Vitro Approaches” (Marine Drugs, 2024).

For test [1], the target named is T1, ovine COX-1 enzyme (Ovis aries, UniProt P05979).
T1 construct: purchased Cayman Chemicals 701050
T1 sequence (P05979 25-600): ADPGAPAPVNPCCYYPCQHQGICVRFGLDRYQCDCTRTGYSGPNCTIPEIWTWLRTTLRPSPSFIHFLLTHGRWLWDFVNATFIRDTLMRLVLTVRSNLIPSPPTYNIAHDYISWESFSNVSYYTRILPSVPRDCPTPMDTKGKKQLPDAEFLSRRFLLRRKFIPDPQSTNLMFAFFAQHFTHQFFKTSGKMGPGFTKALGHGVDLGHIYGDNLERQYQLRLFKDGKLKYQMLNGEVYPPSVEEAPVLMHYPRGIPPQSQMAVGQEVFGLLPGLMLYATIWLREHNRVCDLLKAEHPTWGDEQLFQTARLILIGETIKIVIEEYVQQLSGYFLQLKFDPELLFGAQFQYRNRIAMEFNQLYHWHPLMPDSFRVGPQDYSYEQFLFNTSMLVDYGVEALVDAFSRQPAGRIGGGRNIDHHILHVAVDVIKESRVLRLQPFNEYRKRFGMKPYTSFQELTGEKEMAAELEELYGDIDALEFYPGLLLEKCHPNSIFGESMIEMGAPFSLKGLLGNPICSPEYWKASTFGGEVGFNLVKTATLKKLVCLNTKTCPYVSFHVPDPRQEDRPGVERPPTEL
As to the kind of experiment: COX colourimetric inhibition screening assay, COX-1. Format: biochemical. Particulars: synthesised peptide. How it is done: The anti-pain and anti-inflammatory bioactivities of generated mesopelagic hydrolysates and permeates were assessed using a cyclooxygenase inhibition assay, targeting human COX-2 and ovine COX-1 enzymes, as described previously. COX (Prostaglandin H synthase) inhibition plays a positive role in the prevention of a variety of health conditions, and COX inhibitors have documented analgesic, anti-inflammatory, and antipyretic properties. They can influence pain and inflammation related to diseases like osteoarthritis and rheumatoid arthritis, musculoskeletal injury, migraines, and cancer. COX inhibitors are indicated for mild pain and are usually prescribed for short durations of time to patients. […] COX inhibition was calculated using the following Equation:% COX inhibition = (Corrected 100% initial activity − Corrected Inhibitor activity)/(Corrected 100% initial activity) × 100(1) where Corrected 100% initial activity was the absorbance value recorded for wells containing 150 µL 1× assay Buffer, 10 µL of either COX-1 or COX-2 enzyme and 10 µL of solvent (DMSO) minus the absorbance value recorded for the background well containing 160 µL of 1× Assay Buffer and 10 µL of solvent.

The target of test [2] is T2, human COX-2 enzyme (Homo sapiens, UniProt P35354).
T2 construct: purchased Cayman Chemicals 701050
T2 sequence (P35354 18-604): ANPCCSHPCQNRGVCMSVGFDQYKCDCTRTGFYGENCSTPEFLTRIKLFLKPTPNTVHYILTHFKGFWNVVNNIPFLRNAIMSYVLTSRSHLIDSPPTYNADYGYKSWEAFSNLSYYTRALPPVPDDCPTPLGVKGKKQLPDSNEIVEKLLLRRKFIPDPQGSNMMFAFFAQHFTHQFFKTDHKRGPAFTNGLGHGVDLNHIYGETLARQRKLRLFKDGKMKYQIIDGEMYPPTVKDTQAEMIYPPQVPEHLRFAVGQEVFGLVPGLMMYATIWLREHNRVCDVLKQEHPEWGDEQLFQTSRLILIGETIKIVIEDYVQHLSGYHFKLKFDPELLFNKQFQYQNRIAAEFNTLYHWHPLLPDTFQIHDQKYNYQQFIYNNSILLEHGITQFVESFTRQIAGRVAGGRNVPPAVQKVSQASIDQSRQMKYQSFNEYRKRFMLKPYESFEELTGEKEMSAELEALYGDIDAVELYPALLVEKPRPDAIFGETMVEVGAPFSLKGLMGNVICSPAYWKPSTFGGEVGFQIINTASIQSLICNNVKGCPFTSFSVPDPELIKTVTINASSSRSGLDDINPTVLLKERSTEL
As to the kind of experiment: COX colourimetric inhibition screening assay, COX-2. Format: biochemical. The conditions noted are these: for IC50 / inhibition at 1000 µg/mL: synthesised peptide; for inhibition at 1000 µg/mL: 1 mg/mL. How it is done:
The anti-pain and anti-inflammatory bioactivities of generated mesopelagic hydrolysates and permeates were assessed using a cyclooxygenase inhibition assay, targeting human COX-2 and ovine COX-1 enzymes, as described previously. […] They can influence pain and inflammation related to diseases like osteoarthritis and rheumatoid arthritis, musculoskeletal injury, migraines, and cancer. COX inhibitors are indicated for mild pain and are usually prescribed for short durations of time to patients.

Test [3] concerns the target T3, MAGL enzyme (Homo sapiens, UniProt Q99685).
T3 construct: purchased Cayman
T3 sequence (Q99685 1-303): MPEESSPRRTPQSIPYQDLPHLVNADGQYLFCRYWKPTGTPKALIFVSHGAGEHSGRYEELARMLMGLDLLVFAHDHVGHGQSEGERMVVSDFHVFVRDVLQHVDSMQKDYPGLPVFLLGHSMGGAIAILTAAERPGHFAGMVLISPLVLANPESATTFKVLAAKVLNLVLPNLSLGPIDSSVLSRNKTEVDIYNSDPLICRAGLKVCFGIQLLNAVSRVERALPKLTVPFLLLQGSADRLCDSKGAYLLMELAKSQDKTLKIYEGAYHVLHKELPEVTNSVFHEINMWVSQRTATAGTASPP
As to the kind of experiment: Monoacylglycerol lipase inhibition screening assay. It is filed as biochemical. The source says: Monoacylglycerol lipase (MAGL) is a serine hydrolase that catalyses the hydrolysis of monoglycerides into glycerol and fatty acids and links the endocannabinoid and eicosanoid systems through degradation of 2-arachidaoylglycerol to arachidonic acid, a precursor of prostaglandins and other inflammatory mediators. MAGL inhibitors can have anti-nociceptive, anxiolytic, anti-inflammatory and even anti-cancer benefits. The Cayman’s Monoacylglycerol lipase inhibition screening assay kit was used to measure the inhibition of MAGL by generated hydrolysates and the positive control JZL 195 inhibitor. The assay was performed in compliance with the manufacturer’s instructions. MAGL hydrolyses 4-Nitrophenylacetate, resulting in a yellow product, 4-nitrophenol, that has an absorbance between 405–412 nm. The […] of the yellow colour is indicative of MAGL inhibition. MAGL inhibition was calculated using the following Equation:% MAGL inhibition = (corrected 100% initial activity − corrected inhibitor activity)/(corrected 100% initial activity) × 100(2) where corrected 100% initial activity was the absorbance value recorded for wells containing 150 µL 1× assay Buffer, 10 µL of MAGL enzyme and 10 µL of solvent minus the absorbance value recorded for the background well containing 160 µL of 1× Assay Buffer and 10 µL of solvent (1.4% DMSO in water).

Test [4] relates to COX-1. On the set-up: method as in PMID 20188172. Particulars: known COX-1 selective inhibitors from Chinese herbs; cited from earlier work.
Test [5] relates to COX-2. Also noted: method as in PMID 20188172. Particulars: known COX-2 selective inhibitors; read-out: COX2- IC50; cited from earlier work.
Test [6] deals with LOX-1 expression. On the set-up: method as in PMID 30955604. Particulars: peptides from amaranth; cited from earlier work.
For test [7], the system named is nitric oxide (NO) production. On the set-up: method as in doi:10.48022/mbl.2109.09005. The conditions noted are these: peptide from mollusc abalone; cited from earlier work.

Residues, ends and D or L forms follow the SMILES beside them.

For the compound `CC[C@H](C)[C@H](N)C(=O)N[C@@H](C)C(=O)NCC(=O)N[C@@H](Cc1ccccc1)C(=O)N[C@@H](CCC(=O)O)C(=O)N[C@H](C(=O)N[C@@H](Cc1ccccc1)C(=O)N[C@@H](CC(=O)O)C(=O)N[C@@H](Cc1ccccc1)C(=O)N[C@@H](CC(N)=O)C(=O)N[C@@H](CO)C(=O)N[C@@H](CC(C)C)C(=O)N[C@@H](CCC(=O)O)C(=O)N[C@@H](CCC(N)=O)C(=O)N[C@@H](CC(C)C)C(=O)N[C@@H](CS)C(=O)O)[C@@H](C)CC` (H-IAGFEIFDFNSLEQLC-OH), the IC50 in test [1] is 103 µM; in test [2], 366 µM. The inhibition at 1000 µg/mL is 53.3% in test [1] (1 mg/mL) and 47.5% in test [2]. This compound also returned a selectivity index in test [2] (COX-1 versus COX-2 IC50 of synthesised peptide) of 0.52. Consider `CC[C@H](C)[C@H](NC(=O)[C@H](CC(C)C)NC(=O)[C@H](C)NC(=O)[C@H](CCC(=O)O)NC(=O)[C@@H]1CCCN1C(=O)[C@H](CC(C)C)NC(=O)CNC(=O)[C@H](CC(C)C)NC(=O)[C@H](C)NC(=O)[C@H](C)NC(=O)[C@@H](NC(=O)[C@H](CC(C)C)NC(=O)[C@H](Cc1ccccc1)NC(=O)[C@@H](NC(=O)[C@H](CS)NC(=O)[C@@H](NC(=O)[C@@H](NC(=O)[C@H](CCC(=O)O)NC(=O)CNC(=O)[C@@H](NC(=O)[C@@H](N)CC(N)=O)C(C)C)C(C)C)C(C)C)[C@@H](C)CC)[C@@H](C)O)C(=O)O` (H-NVGEVVCIFLTAALGLPEALI-OH), for which, in test [3] (synthesised peptide), inhibition was half-maximal at 6.35 µM (IC50). In addition, at 500 µg/mL the inhibition in test [3] (synthesised peptide, 0.5 mg/mL) was 53%.

`CSCC[C@H](NC(=O)[C@H](Cc1ccccc1)NC(=O)[C@H](CCC(N)=O)NC(=O)[C@H](Cc1ccc(O)cc1)NC(=O)[C@H](C)NC(=O)[C@H](CC(N)=O)NC(=O)[C@H](CC(=O)O)NC(=O)[C@@H](N)CO)C(=O)N[C@@H](CC(C)C)C(=O)N[C@H](C(=O)O)[C@@H](C)O` (H-SDNAYQFMLT-OH) had an inhibition at 500 µg/mL in test [1] (0.5 mg/mL) of 53.7%.

Take `CC(=O)O[C@@H]1CC[C@@]2(C)[C@@H](CC[C@]3(C)[C@@H]2C(=O)C=C2[C@@H]4[C@@H](C)[C@H](C)CC[C@]4(C)CC[C@]23C)[C@@]1(C)C(=O)O` [Acetyl-11-keto-β-boswellic acid]: in test [4], the IC50 was around 10 µM.

Take `O=C(Oc1ccc([N+](=O)[O-])cc1)N1CCN(Cc2cccc(Oc3ccccc3)c2)CC1` [JZL 195, reference compound]: in test [3] (positive control at 4.4 µM), the “% MAGL inhibition” value is given as 98.16%. With `CC(C)C[C@H](NC(=O)[C@H](C)NC(=O)[C@H](Cc1c[nH]c2ccccc12)NC(=O)[C@@H]1CCCN1C(=O)[C@H](CCCNC(=N)N)NC(=O)[C@H](Cc1c[nH]cn1)NC(=O)[C@H](CC(C)C)NC(=O)[C@@H]1CCCN1C(=O)[C@H](CS)NC(=O)[C@@H](N)CCC(N)=O)C(=O)O` [QCPLHRPWAL] (H-QCPLHRPWAL-OH), in test [1] (concentration not printed with the value), the “% COX-1 inhibition” value is recorded as 82.90% (+/−0.54). In test [2], this compound returned an IC50 of 221 µM and an inhibition at 1000 µg/mL of 53.8%.

Take `CCC/C=C1\OC(=O)C2=C1CC[C@H]1[C@H]3C=C4C(=O)O/C(=C\CCC)[C@@]4(CC3)[C@@H]21` [Senkyunolide O]: the IC50 in test [5] was 5 µM. As for `CC(=O)O[C@@H]1CC[C@@]2(C)[C@@H](CC[C@]3(C)[C@@H]2CC=C2[C@@H]4CC(C)(C)CC[C@]4(C)CC[C@]23C)[C@@]1(C)C(=O)O` [acetyl-α-boswellic acid], the IC50 in test [4] is around 10 µM. Consider `CC(=O)O[C@@H]1CC[C@@]2(C)[C@@H](CC[C@]3(C)[C@@H]2CC=C2[C@@H]4[C@@H](C)[C@H](C)CC[C@]4(C)CC[C@]23C)[C@@]1(C)C(=O)O` [acetyl-β-boswellic acid], for which the IC50 in test [4] is around 10 µM. In the case of `C[C@H]1COC2=C1C(=O)C(=O)c1c2ccc2c1CCCC2(C)C` [cryptotanshinone], the IC50 in test [5] was 22 µM. Consider `C[C@H]1[C@H](C)CC[C@]2(C)CC[C@]3(C)C(=CC[C@@H]4[C@@]5(C)CC[C@@H](O)[C@](C)(C(=O)O)[C@@H]5CC[C@]43C)[C@H]12` [β-boswellic acid], for which, in test [4], the IC50 was around 10 µM. Take “FDAFLPM [peptide from Irish M. muelleri Alcalase hydrolysate (Code 23), chemically synthesised]”: the “% COX-1 inhibition” value in test [1] (0.5 mg/mL) came to 34.49%. In the case of “HGSEPFGPR [literature anti-inflammatory peptide from amaranth]”, the “effect on LOX-1 expression” value in test [6] is reported as “reduce LOX-1 expression”.

Regarding “PFNEGTFAAS [literature peptide derived from mollusc abalone]”, in test [7], the “NO IC50” value is 54.07 µg/mL. As for “RPRYPWRYT [literature anti-inflammatory peptide from amaranth]”, in test [6], the “effect on LOX-1 expression” value is listed as “reduce LOX-1 expression”.

In general, IC50 refers to the concentration that gives 50% inhibition. One may read the inhibition as the change of the read-out against control, counted positive when it falls. Lower therefore signals a response near the control.
